Measurements as given in patent US4147861A, “1N-(α-Hydroxy-ω-aminoalkanoyl)- 6'N-methyl-3',4'-dideoxykanamycin B and the production thereof” (Zaidan Hojin Biseibutsu Kagaku Kenkyu Kai, priority 1977, dated 1979).
Values after ≈ are worked out from the molar mass of the structure shown. Like-named read-outs stand apart in the source and are kept apart here.

Tests used:
Format in all cases: cell-based
[1] = tested on: Staphylococcus aureus Terajima; assay: Minimum inhibitory concentration, serial dilution method on nutrient agar; conditions: 37° C., 18 hours, read-out: Minimum Inhibitory Concentrations
[2] = tested on: Escherichia coli NIHJ; assay: as above; conditions: read-out: Minimum Inhibitory Concentrations
[3] = tested on: Salmonella typhosa T-63; assay: as above; conditions: Salmonella enterica, 18 h, read-out: Minimum Inhibitory Concentrations
[4] = tested on: Escherichia coli K-12 ML 1410; assay: as above; conditions: read-out: Minimum Inhibitory Concentrations
[5] = tested on: Klebsiella pneumoniae PCT 602; assay: as above; conditions: PCT602; Klebsiella pneumoniae PCT 602; 37° C., 18 hours; read-out: Minimum Inhibitory Concentrations
[6] = tested on: Proteus vulgaris OX 19; assay: as above; conditions: OX19; Proteus vulgaris OX 19; 37° C., 18 hours; read-out: Minimum Inhibitory Concentrations
[7] = tested on: Sarcina lutea PCI 1001; assay: as above; conditions: Micrococcus luteus, read-out: Minimum Inhibitory Concentrations
[8] = tested on: Shigella sonnei JS 11746; assay: as above; conditions: JS11746, 37° C., 18 hours, read-out: Minimum Inhibitory Concentrations
Protocol: (§1) The minimum inhibitory concentrations (mcg./ml.) of 1N-(DL-isoseryl)-6'N-methyl-3',4'-dideoxykanamycin B (abbreviated as DL-IS-MDKB); 1N-(L-isoseryl)-6'N-methyl-3',4'-dideoxykanamycin B (abbreviated as L-IS-MDKB); 1N-(L-4-amino-[…])-6'N-methyl-3',4'-dideoxykanamycin B (abbreviated as AHB-MDKB); and 1N-(L-5-amino-2-hydroxyvaleryl)-6'N-methyl-3',4'-dideoxykanamycin B (abbreviated as AHV-MDBK) against various organisms were determined according to serial dilution method using nutrient agar medium at 37° C., the readings being made after 18 hours incubation. For the comparison purpose, the minimum inhibitory concentrations (mcg./ml.) of 1 N-(L-4-amino-2-hydroxybutyryl)-kanamycin A (abbreviated as AHB-KMA) and 1N-([…])-kanamycin B (abbreviated as AHB-KMB) which are known from U.S. Pat. No. 3,781,268 were also determined by the same manner as stated above.

[9] = tested on: Escherichia coli K-12 ML 1630; assay: as above; conditions: K12ML1630, 37° C., 18 hours, read-out: Minimum Inhibitory Concentrations
Protocol: as §1

[10] = tested on: Pseudomonas aeruginosa A3; assay: as above; conditions: 37° C., 18 hours, read-out: Minimum Inhibitory Concentrations
Protocol: as §1

[11] = tested on: Klebsiella pneumoniae 22 No. 3038; assay: as above; conditions: 37° C., 18 hours, read-out: Minimum Inhibitory Concentrations
Protocol: as §1

[12] = tested on: Shigella flexneri 4b JS 11811; assay: as above; conditions: 4BJS11811, 37° C., 18 hours, read-out: Minimum Inhibitory Concentrations
Protocol: as §1

[13] = tested on: Escherichia coli K-12 ML 1410 R81; assay: as above; conditions: 18 h, read-out: Minimum Inhibitory Concentrations
[14] = tested on: Pseudomonas aeruginosa TI-13; assay: as above; conditions: read-out: Minimum Inhibitory Concentrations
[15] = tested on: Staphylococcus aureus; assay: as above; conditions: 37° C., 18 hours, read-out: Minimum Inhibitory Concentrations
[16] = tested on: Salmonella enteritidis 1891; assay: as above; conditions: Salmonella enterica; Salmonella enteritidis 1891; 37° C., 18 hours; read-out: Minimum Inhibitory Concentrations
[17] = tested on: Escherichia coli JR66/W677; assay: as above; conditions: read-out: Minimum Inhibitory Concentrations
[18] = tested on: Corynebacterium bovis 1810; assay: as above; conditions: Corynebacterium bovis 1810; 37° C., 18 hours; read-out: Minimum Inhibitory Concentrations
[19] = tested on: Bacillus cereus ATCC 10702; assay: as above; conditions: read-out: Minimum Inhibitory Concentrations
[20] = tested on: Bacillus subtilis PCI 219; assay: as above; conditions: PCI219, 37° C., 18 hours, read-out: Minimum Inhibitory Concentrations
[21] = tested on: Escherichia coli K-12 R5; assay: as above; conditions: K12R5, 18 h, read-out: Minimum Inhibitory Concentrations
[22] = tested on: Bacillus anthracis; assay: microbe, parasite or virus in culture; conditions: 18 h, read-out: Minimum Inhibitory Concentrations
[23] = tested on: Mycobacterium smegmatis ATCC 607; assay: Minimum inhibitory concentration, serial dilution method on nutrient agar; conditions: Mycolicibacterium smegmatis, ATCC607, 37° C., 18 hours, read-out: Minimum Inhibitory Concentrations
[24] = tested on: Escherichia coli K-12 ML 1629; assay: as above; conditions: read-out: Minimum Inhibitory Concentrations
[25] = tested on: Staphylococcus aureus FDA 209P; assay: as above; conditions: FDA209P, 37° C., 18 hours, read-out: Minimum Inhibitory Concentrations
[26] = tested on: Pseudomonas aeruginosa 99; assay: as above; conditions: 37° C., 18 hours, read-out: Minimum Inhibitory Concentrations
[27] = tested on: Escherichia coli K-12; assay: as above; conditions: K12; Escherichia coli K-12; 37° C., 18 hours; read-out: Minimum Inhibitory Concentrations
[28] = tested on: Bacillus subtilis NRRL B-558; assay: as above; conditions: NRRLB558, 37° C., 18 hours, read-out: Minimum Inhibitory Concentrations
[29] = tested on: Pseudomonas aeruginosa GN315; assay: as above; conditions: Pseudomonas aeruginosa GN315; 37° C., 18 hours; read-out: Minimum Inhibitory Concentrations
[30] = tested on: Escherichia coli LA290 R56; assay: as above; conditions: LA290R56, 18 h, read-out: Minimum Inhibitory Concentrations
[31] = tested on: Escherichia coli LA290 R55; assay: as above; conditions: LA290R55, 18 h, read-out: Minimum Inhibitory Concentrations
[32] = tested on: Shigella dysenteriae JS 11910; assay: as above; conditions: JS11910, 18 h, read-out: Minimum Inhibitory Concentrations
[33] = tested on: Escherichia coli LA290 R64; assay: as above; conditions: LA290R64, 18 h, read-out: Minimum Inhibitory Concentrations
[34] = tested on: Pseudomonas aeruginosa No. 12; assay: as above; conditions: Pseudomonas aeruginosa No. 12; 37° C., 18 hours; read-out: Minimum Inhibitory Concentrations
[35] = tested on: Escherichia coli W677; assay: as above; conditions: Escherichia coli W677; 37° C., 18 hours; read-out: Minimum Inhibitory Concentrations

## CNC[C@@H]1CC[C@@H](N)[C@@H](O[C@H]2[C@H](O)[C@@H](O[C@H]3O[C@H](CO)[C@@H](O)[C@H](N)[C@H]3O)[C@H](NC(=O)[C@@H](O)CCCN)C[C@@H]2N)O1 [AHV-MDKB, 1N-(L-5-amino-2-hydroxyvaleryl)-6'N-methyl-3',4'-dideoxykanamycin B]
[1]
  MIC: < 0.2 µg/mL
[2]; Escherichia coli NIHJ, 37° C., 18 hours
  MIC: 0.78 µg/mL (≈ 1.34 µM)
[3]
  MIC: 0.78 µg/mL (≈ 1.34 µM)
[4]; K12ML1410, Escherichia coli K-12 ML 1410, 37° C., 18 hours
  MIC: 1.56 µg/mL (≈ 2.69 µM)
[5]
  MIC: 0.78 µg/mL (≈ 1.34 µM)
[6]
  MIC: 0.78 µg/mL (≈ 1.34 µM)
[7]; PCI1001, Sarcina lutea PCI 1001, 37° C., 18 hours
  MIC: 12.5 µg/mL (≈ 21.5 µM)
[8]
  MIC: 3.13 µg/mL (≈ 5.39 µM)
[9]
  MIC: 1.56 µg/mL (≈ 2.69 µM)
[10]
  MIC: 3.13 µg/mL (≈ 5.39 µM)
[11]
  MIC: 3.13 µg/mL (≈ 5.39 µM)
[12]
  MIC: 3.13 µg/mL (≈ 5.39 µM)
[13]
  MIC: 1.56 µg/mL (≈ 2.69 µM)
[14]; TI13, Pseudomonas aeruginosa TI-13, 37° C., 18 hours
  MIC: 6.25 µg/mL (≈ 10.8 µM)
[15]
  MIC: < 0.2 µg/mL
[16]
  MIC: 0.78 µg/mL (≈ 1.34 µM)
[17]; Escherichia coli JR66/W677, 37° C., 18 hours
  MIC: 1.56 µg/mL (≈ 2.69 µM)
[18]
  MIC: 6.25 µg/mL (≈ 10.8 µM)
[19]; ATCC10702, Bacillus cereus ATCC 10702, 37° C., 18 hours
  MIC: 1.56 µg/mL (≈ 2.69 µM)
[20]
  MIC: < 0.2 µg/mL
[21]
  MIC: 1.56 µg/mL (≈ 2.69 µM)
[22]
  MIC: < 0.2 µg/mL
[23]
  MIC: 0.78 µg/mL (≈ 1.34 µM)
[24]; K12ML1629, Escherichia coli K-12 ML 1629, 37° C., 18 hours
  MIC: 0.78 µg/mL (≈ 1.34 µM)
[25]
  MIC: 0.39 µg/mL (≈ 0.672 µM)
[26]
  MIC: 25 µg/mL (≈ 43.1 µM)
[27]
  MIC: 0.78 µg/mL (≈ 1.34 µM)
[28]
  MIC: < 0.2 µg/mL
[29]
  MIC: 12.5 µg/mL (≈ 21.5 µM)
[30]
  MIC: 0.39 µg/mL (≈ 0.672 µM)
[31]
  MIC: 0.78 µg/mL (≈ 1.34 µM)
[32]
  MIC: 3.13 µg/mL (≈ 5.39 µM)
[33]
  MIC: 0.39 µg/mL (≈ 0.672 µM)
[34]
  MIC: 25 µg/mL (≈ 43.1 µM)
[35]
  MIC: 0.78 µg/mL (≈ 1.34 µM)

## CNC[C@@H]1CC[C@@H](N)[C@@H](O[C@H]2[C@H](O)[C@@H](O[C@H]3O[C@H](CO)[C@@H](O)[C@H](N)[C@H]3O)[C@H](NC(=O)[C@@H](O)CN)C[C@@H]2N)O1 [L-IS-MDKB, 1N-(L-isoseryl)-6'N-methyl-3',4'-dideoxykanamycin B]
[1]
  MIC: < 0.2 µg/mL
[2]; Escherichia coli, 18 h
  MIC: 1.56 µg/mL (≈ 2.82 µM)
[3]
  MIC: 0.39 µg/mL (≈ 0.706 µM)
[4]; Escherichia coli, K12ML1410, 18 h
  MIC: 1.56 µg/mL (≈ 2.82 µM)
[5]
  MIC: 0.78 µg/mL (≈ 1.41 µM)
[6]
  MIC: 0.78 µg/mL (≈ 1.41 µM)
[7]; PCI1001, 18 h
  MIC: 3.13 µg/mL (≈ 5.66 µM)
[8]
  MIC: 3.13 µg/mL (≈ 5.66 µM)
[9]
  MIC: 1.56 µg/mL (≈ 2.82 µM)
[10]
  MIC: 3.13 µg/mL (≈ 5.66 µM)
[11]
  MIC: 1.56 µg/mL (≈ 2.82 µM)
[12]
  MIC: 1.56 µg/mL (≈ 2.82 µM)
[13]
  MIC: 1.56 µg/mL (≈ 2.82 µM)
[14]; Pseudomonas aeruginosa, TI13, 18 h
  MIC: 6.25 µg/mL (≈ 11.3 µM)
[15]
  MIC: < 0.2 µg/mL
[16]
  MIC: 0.78 µg/mL (≈ 1.41 µM)
[17]; Escherichia coli, JR66/W677, 18 h
  MIC: 1.56 µg/mL (≈ 2.82 µM)
[18]
  MIC: 0.78 µg/mL (≈ 1.41 µM)
[19]; Bacillus cereus, ATCC10702, 18 h
  MIC: 1.56 µg/mL (≈ 2.82 µM)
[20]
  MIC: < 0.2 µg/mL
[21]
  MIC: 1.56 µg/mL (≈ 2.82 µM)
[22]
  MIC: < 0.2 µg/mL
[23]
  MIC: 0.39 µg/mL (≈ 0.706 µM)
[24]; Escherichia coli, K12ML1629, 18 h
  MIC: 1.56 µg/mL (≈ 2.82 µM)
[25]
  MIC: < 0.2 µg/mL
[26]
  MIC: 25 µg/mL (≈ 45.2 µM)
[27]
  MIC: 0.78 µg/mL (≈ 1.41 µM)
[28]
  MIC: < 0.2 µg/mL
[29]
  MIC: 25 µg/mL (≈ 45.2 µM)
[30]
  MIC: 0.78 µg/mL (≈ 1.41 µM)
[31]
  MIC: 1.56 µg/mL (≈ 2.82 µM)
[32]
  MIC: 3.13 µg/mL (≈ 5.66 µM)
[33]
  MIC: 0.39 µg/mL (≈ 0.706 µM)
[34]
  MIC: 25 µg/mL (≈ 45.2 µM)
[35]
  MIC: 0.78 µg/mL (≈ 1.41 µM)
